pIC50: −log10 of the molar value. Values joined by “and” are separate entries in the source; they are usually repeats but may differ in a detail not shown here. Equal entries are not always repeated.
System: 699152-130-R-J1-PDC complex spheroid growth
Assay: Anticancer human tumor 699152-130-R-J1-PDC patient-derived pancreatic carcinoma cell line growth inhibition [AhR]
Conditions: for viability, T/C: stronger effect = lower value
Source text: Multicellular complex tumor spheroid response to aryl hydrocarbon receptor antagonists in combination with a variety of drugs and investigational agents in selected tumor cell lines
The current study was undertaken to assess response to aryl hydrocarbon receptor antagonists in combination with standard-of-care drugs and investigational agents in solid tumor complex spheroid models. Complex spheroids include a stromal component modeled by human endothelial cells (HUVEC) and fibroblasts modeled by human mesenchymal stem cells (MSCs). The concentration ranges selected for each drug and investigational agent were based upon clinically achievable concentrations if the clinical Cmax of the agent was known.
Compounds. The drugs and investigational agents: BAY 2416964 (NSC825713), GNF351 (NSC835774), CH-223191 (NSC835775), CPI-455 (NSC825282), aza-TdCyd (NSC777586), decitabine (NSC127716), belinostat (NSC758774), entinostat (NSC756642), pevonedistat (NSC761192), tazemetostat (NSC777109), talazoparib (NSC765396), olaparib (NSC753686), selinexor (NSC780203), nedisertib (M3814, NSC802822), bortezomib (NSC756655), venetoclax (NSC766270), doxorubicin (NSC123127), elimusertib (BAY189344, NSC800525), ceralasertib (AZD6738, NSC777638), TAK-243 (NSC785004), alisertib (NSC759677), etoposide (NSC141540), topotecan (NSC609699), eribulin (NSC707389), gemcitabine (NSC613327), carboplatin (NSC241240), cisplatin (NSC119875), and SN-38 (NSC673596) were obtained from the National Cancer Institute (NCI) Developmental Therapeutics Program Chemical Repository (32). The FDA-approved anticancer drug set is available from the Developmental Therapeutics Program at https://dtp.cancer.gov/organization/dscb/obtaining/available plates.htm. […] The stock solutions were prepared in dimethyl sulfoxide (DMSO, Sigma-Aldrich, St. Louis, MO, cat. D2650), except for the platinum compounds which were prepared in saline (Quality Biological, Gaithersburg, MD, cat. 114-055-101), at 800-fold the tested concentration and stored at -70 degrees C prior to their use. All drugs and investigational agents were tested over a range starting from a high concentration at or near the clinical Cmax and decreasing in half-log increments. If the clinical Cmax for an agent had not been determined, the highest concentration tested was 10 microM (Table 1).
Cell Culture. All cells were maintained in an incubator at 37 degrees C and 5% CO2 with 95% humidity. The PDC lines were cultured according to standard operating procedures established by the NCI PDMR (https://pdmr.cancer.gov). Briefly, all PDCs were thawed and cultured in Matrigel-coated flasks prepared with a working solution of 1X Ham's F-12 nutrient mix, without supplementation (Invitrogen, Waltham, MA, cat. 11765054), 100 U/mL penicillin-streptomycin (Invitrogen, cat. 15140122), and 2.5% Matrigel (Corning Inc., Corning, NY, cat. 354248) for the first three passages. All PDCs were cultured in complete DMEM/F-12 media containing advanced DMEM/F-12 (Invitrogen, cat. 12634028), 4.9% defined fetal bovine serum, heat inactivated (HyClone Laboratories Inc., Logan, UT, cat. SH30070.03HI), 389 ng/mL hydrocortisone (Sigma-Aldrich, cat. H4001), 9.7 ng/mL human EGF recombinant protein (Invitrogen, cat. PHG0313), 23.4 microg/mL adenine (Sigma-Aldrich, cat. A2786), 97.3 U/mL penicillin-streptomycin (Invitrogen, cat. 15140122), 1.9 mM L-glutamine (Invitrogen, cat. 25030081), and 9.7 microM Y-27632 dihydrochloride (Tocris Bioscience, Bristol, United Kingdom, cat. 1254). The PDCs were cultured in complete DMEM/F12 media without 10 microM Y-27632 dihydrochloride for at least two passages prior to the screen. The established cell lines NCI-H1341 and […] were cultured in DMEM/F-12, HEPES (Invitrogen, cat. 11330032), 5% defined fetal bovine serum (HyClone Laboratories Inc., cat. SH30070.03), ITS premix universal culture supplement [insulin (5 microg/mL), transferrin (5 microg/mL), and selenious acid (5 ng/mL)] […]

[1] = curve of first compound, second compound 0.1 µM
[2] = curve of first compound, second compound 0.316 µM
[3] = curve of first compound, second compound 1 µM
[4] = curve of first compound, second compound 3.16 µM
[5] = curve of first compound, second compound 10 µM
[6] = second compound 0.1 µM, first compound 0.0316 µM
[7] = second compound 0.1 µM, first compound 0.1 µM
[8] = second compound 0.1 µM, first compound 0.316 µM
[9] = second compound 0.1 µM, first compound 1 µM
[10] = second compound 0.1 µM, first compound 3.16 µM
[11] = second compound 0.1 µM, first compound 10 µM
[12] = second compound 0.316 µM, first compound 0.0316 µM
[13] = second compound 0.316 µM, first compound 0.1 µM
[14] = second compound 0.316 µM, first compound 0.316 µM
[15] = second compound 0.316 µM, first compound 1 µM
[16] = second compound 0.316 µM, first compound 3.16 µM
[17] = second compound 0.316 µM, first compound 10 µM
[18] = second compound 1 µM, first compound 0.0316 µM
[19] = second compound 1 µM, first compound 0.1 µM
[20] = second compound 1 µM, first compound 0.316 µM
[21] = second compound 1 µM, first compound 1 µM
[22] = second compound 1 µM, first compound 3.16 µM
[23] = second compound 1 µM, first compound 10 µM
[24] = second compound 3.16 µM, first compound 0.0316 µM
[25] = second compound 3.16 µM, first compound 0.1 µM
[26] = second compound 3.16 µM, first compound 0.316 µM
[27] = second compound 3.16 µM, first compound 1 µM
[28] = second compound 3.16 µM, first compound 3.16 µM
[29] = second compound 3.16 µM, first compound 10 µM
[30] = second compound 10 µM, first compound 0.0316 µM
[31] = second compound 10 µM, first compound 0.1 µM
[32] = second compound 10 µM, first compound 0.316 µM
[33] = second compound 10 µM, first compound 1 µM
[34] = second compound 10 µM, first compound 3.16 µM
[35] = second compound 10 µM, first compound 10 µM
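Also: compound exposure lasted 7 days after spheroids had grown for 3 days.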

Q: `CC(C)CC(NC(=O)C(Cc1ccccc1)NC(=O)c1cnccn1)B(O)O` (configuration not stated) + CC(CO)NC(=O)c1cc(-c2ccc(Cl)cc2)nn(-c2cnn(C)c2)c1=O was tested. Which pIC50 [1] did it give?
A: 8.23

Q: And the pIC50 [2]?
A: 8.23

Q: What about the pIC50 [3] of the same compound?
A: 8.27

Q: And the pIC50 [4]?
A: 8.26

Q: What about the pIC50 [5] of the same compound?
A: 8.29

Q: And the viability, T/C (second compound 0.1 µM, first compound 0.000949 µM)?
A: 91.3%

Q: And the viability, T/C (second compound 0.1 µM, first compound 0.003 µM)?
A: 102%

Q: What about the viability, T/C (second compound 0.1 µM, first compound 0.00949 µM) of the same compound?
A: 16%

Q: What about the viability, T/C (second compound 0.1 µM, first compound 0.03 µM) of the same compound?
A: 1.65%

Q: And the viability, T/C (second compound 0.1 µM, first compound 0.0949 µM)?
A: 10.5%

Q: And the viability, T/C (second compound 0.1 µM, first compound 0.3 µM)?
A: 0.88%

Q: What about the viability, T/C (second compound 0.316 µM, first compound 0.000949 µM) of the same compound?
A: 92.5%

Q: What about the viability, T/C (second compound 0.316 µM, first compound 0.003 µM) of the same compound?
A: 115%

Q: What about the viability, T/C (second compound 0.316 µM, first compound 0.00949 µM) of the same compound?
A: 10.9%

Q: What about the viability, T/C (second compound 0.316 µM, first compound 0.03 µM) of the same compound?
A: 0.58%

Q: What about the viability, T/C (second compound 0.316 µM, first compound 0.0949 µM) of the same compound?
A: 0.4%

Q: And the viability, T/C (second compound 0.316 µM, first compound 0.3 µM)?
A: 0.53%

Q: What about the viability, T/C (second compound 1 µM, first compound 0.000949 µM) of the same compound?
A: 100%

Q: And the viability, T/C (second compound 1 µM, first compound 0.003 µM)?
A: 86.1%

Q: And the viability, T/C (second compound 1 µM, first compound 0.00949 µM)?
A: 15.2%

Q: What about the viability, T/C (second compound 1 µM, first compound 0.03 µM) of the same compound?
A: 3.08%

Q: And the viability, T/C (second compound 1 µM, first compound 0.0949 µM)?
A: 0.35%

Q: And the viability, T/C (second compound 1 µM, first compound 0.3 µM)?
A: 0.5%

Q: And the viability, T/C (second compound 3.16 µM, first compound 0.000949 µM)?
A: 80.9%

Q: What about the viability, T/C (second compound 3.16 µM, first compound 0.003 µM) of the same compound?
A: 92.5%

Q: And the viability, T/C (second compound 3.16 µM, first compound 0.00949 µM)?
A: 16.2%

Q: And the viability, T/C (second compound 3.16 µM, first compound 0.03 µM)?
A: 1.89%

Q: And the viability, T/C (second compound 3.16 µM, first compound 0.0949 µM)?
A: 1.77%

Q: And the viability, T/C (second compound 3.16 µM, first compound 0.3 µM)?
A: 5.12%

Q: And the viability, T/C (second compound 10 µM, first compound 0.000949 µM)?
A: 74.7%

Q: What about the viability, T/C (second compound 10 µM, first compound 0.003 µM) of the same compound?
A: 90.8%

Q: What about the viability, T/C (second compound 10 µM, first compound 0.00949 µM) of the same compound?
A: 12.6%

Q: And the viability, T/C (second compound 10 µM, first compound 0.03 µM)?
A: 1.86%

Q: What about the viability, T/C (second compound 10 µM, first compound 0.0949 µM) of the same compound?
A: 0.41%

Q: And the viability, T/C (second compound 10 µM, first compound 0.3 µM)?
A: 0.56%

Q: What does the source list for `O=C(c1cc(Cc2n[nH]c(=O)c3ccccc23)ccc1F)N1CCN(C(=O)C2CC2)CC1` + Cc1ccccc1N=Nc1ccc(NC(=O)c2ccnn2C)c(C)c1?
A: pIC50 [1]: < 5.00; pIC50 [2]: < 5.00; pIC50 [3]: < 5.00; pIC50 [4]: < 5.00; pIC50 [5]: < 5.00; viability, T/C [6]: 90.3%; viability, T/C [7]: 92.8%; viability, T/C [8]: 109%; viability, T/C [9]: 101%; viability, T/C [10]: 97.2%; viability, T/C [11]: 78.5%; viability, T/C [12]: 89.6%; viability, T/C [13]: 84.2%; viability, T/C [14]: 109%; viability, T/C [15]: 90%; viability, T/C [16]: 83.5%; viability, T/C [17]: 85.2%; viability, T/C [18]: 106%; viability, T/C [19]: 105%; viability, T/C [20]: 90.4%; viability, T/C [21]: 93.8%; viability, T/C [22]: 88.6%; viability, T/C [23]: 85.5%; viability, T/C [24]: 114%; viability, T/C [25]: 99.3%; viability, T/C [26]: 104%; viability, T/C [27]: 94.1%; viability, T/C [28]: 81.1%; viability, T/C [29]: 83.1%; viability, T/C [30]: 123%; viability, T/C [31]: 121%; viability, T/C [32]: 109%; viability, T/C [33]: 89.3%; viability, T/C [34]: 94%; viability, T/C [35]: 85.7%

Q: With `COc1cccc2c1C(=O)c1c(O)c3c(c(O)c1C2=O)CC(O)(C(=O)CO)CC3OC1CC(N)C(O)C(C)O1` (configuration not stated) as the compound, how does the viability, T/C (compound 0.0316 µM) read?
A: 71.1% and 70.4% and 82.5%

Q: And the viability, T/C (compound 0.1 µM)?
A: 64.3% and 56.2% and 87.1%

Q: What about the viability, T/C (compound 0.316 µM) of the same compound?
A: 48.5% and 41.1% and 55.1%

Q: What about the viability, T/C (compound 1 µM) of the same compound?
A: 30.3% and 29.7% and 31.8%

Q: And the viability, T/C (compound 3.16 µM)?
A: 3.77% and 2.01% and 2.55%

Q: What about the viability, T/C (compound 10 µM) of the same compound?
A: 8.13% and 7.62% and 11.8%

Q: And the pIC50 (curve of compound)?
A: 6.50 and 6.75 and 6.35

Q: Which results are given for `O=C(C=Cc1cccc(S(=O)(=O)Nc2ccccc2)c1)NO` + Cc1cncc(-c2nc(NCCc3c[nH]c4ccccc34)c3ncn(C(C)C)c3n2)c1?
A: pIC50 [1]: < 5.00; pIC50 [2]: < 5.00; pIC50 [3]: < 5.00; pIC50 [4]: < 5.00; pIC50 [5]: > 7.50; viability, T/C [6]: 110%; viability, T/C [7]: 96.5%; viability, T/C [8]: 102%; viability, T/C [9]: 117%; viability, T/C [10]: 98.8%; viability, T/C [11]: 91.3%; viability, T/C [12]: 114%; viability, T/C [13]: 96%; viability, T/C [14]: 101%; viability, T/C [15]: 112%; viability, T/C [16]: 101%; viability, T/C [17]: 82.8%; viability, T/C [18]: 112%; viability, T/C [19]: 120%; viability, T/C [20]: 121%; viability, T/C [21]: 109%; viability, T/C [22]: 96.6%; viability, T/C [23]: 87.5%; viability, T/C [24]: 108%; viability, T/C [25]: 105%; viability, T/C [26]: 109%; viability, T/C [27]: 86.4%; viability, T/C [28]: 81.8%; viability, T/C [29]: 79%; viability, T/C [30]: 27.2%; viability, T/C [31]: 20.6%; viability, T/C [32]: 21.4%; viability, T/C [33]: 19.4%; viability, T/C [34]: 17%; viability, T/C [35]: 10.1%
